Experimental data from US20100297038A1, “Benzimidazole Derivatives And Their Use As Cooling Agents” (Givaudan S.A., priority 2008, published 2010).

Test: Cooling intensity: panelists taste aqueous solutions, compared with menthol at 2 ppm
Assay type: in vivo, human
Conditions: tasted by a small group of panelists
For `Cc1nc2ccccc2n1CCc1ccccc1` [Example 1, 2-methyl-1-phenethyl-1H-benzo[d]imidazole], the “Concentration with a cooling intensity similar to or slightly higher than that of a solution of menthol at 2 ppm” value (“Concentration” below) was 0.03 ppm. In the case of `COc1ccc(CCn2c(C)nc3ccccc32)cc1` [Example 2, 1-(4-methoxyphenethyl)-2-methyl-1H-benzo[d]imidazole], the “Concentration” value is reported as 0.1 ppm. For `CC1CCC(C(C)C)C(O)C1` (stereo not shown) [I-Menthol, I-menthol], the “Concentration” value was 2.0 ppm. With `CCNC(=O)C1CC(C)CCC1C(C)C` (stereo not shown) [WS-3, N-ethyl p-menthanecarboxamide] the “Concentration” value was 1.5 ppm.
